Measured values: BigSolDB 2.1

CO/N=C(\C(=O)N[C@@H]1C(=O)N2C(C(=O)O)=C(CSc3nnnn3C)CS[C@H]12)c1csc(N)n1.CO/N=C(\C(=O)N[C@@H]1C(=O)N2C(C(=O)O)=C(CSc3nnnn3C)CS[C@H]12)c1csc(N)n1.Cl
solubility (mole fraction)
Details	283.15 K	288.15 K	293.15 K	298.15 K	303.15 K	308.15 K	313.15 K
in ethanol	2.61e-05	2.83e-05	3.03e-05	3.17e-05	3.8e-05	4.01e-05	4.68e-05
in methanol	0.000186	0.000196	0.000213	0.000235	0.000253	0.000275	0.000303
in water	3.26e-05	3.59e-05	4.23e-05	4.76e-05	5.29e-05	5.88e-05	6.65e-05
